Results on 9 compounds are retold here after US9827228B2, “Opioid receptor modulators and use thereof” (priority 2015, dated 2017).

Read-outs that look alike come from different tables or passages of the source. Where only a bound is given, the exact number is not on record here.

For assay [1], the system named is B6 mice. The assay can be described thus: Tail-flick test. The format is in vivo. As to conditions: for AUC of inhibition of the tail-flick response: 0-180 min. How it is done:
Male wild-type B6 mice (25-30 g) were kept in a temperature-controlled animal room with a 12-h light/dark cycle. The protocol was approved by the Institutional Animal Care and Use Committee of the National Health Research Institutes, Taiwan. Animal experiments were carried out in accordance with the Policies on the Use of Animals in Neuroscience Research and the ethical guidelines for investigations of experimental pain in conscious animals, International Association for the Study of Pain.
Tail-Flick Analgesia Meter (Columbia Instruments, Trussville, Ala., USA) was used to measure the tail-flick latencies of mice. The cut-off time for each measurement was 10 s to avoid tissue damage. Basal latencies (in seconds) were recorded before treatment and test latencies (also in seconds) were recorded at 30, 60, 90, 120, and 180 minutes after an intravenous injection of compounds. Time-response curves from compounds at various concentrations were obtained for anti-nociceptive effects occurring between 0 and 180 minutes. The AUC values corresponding to the various concentrations were also calculated. The anti-nociceptive effects were quantitatively calculated by substracting the basal latency from the test latency. An ED50 value was determined by an up-and-down method reported in Crocker et al., Pharmacol Biochem Behav, 1984, 21, 133-136.
To investigate whether AAMs could change the innate character of MOR to be activated by naloxone in vivo, tail-flick tests after acute treatment were performed. […] Unexpectedly, in mice injected only with the vehicle not containing naloxone, no anti-nociception effect was observed even with the highest dose of Compound 1 at 100 mg/kg. These in vivo results again indicate that Compound 1 served as an AAM of the MOR.
In general terms: In hot-plate and tail-flick tests a longer latency is read as antinociception.

Assay [2] addresses T1, hMOR (Homo sapiens, UniProt P35372).
T1 construct: host or cells: CHO-K1
Kind of assay: cell-based. The format is cell-based. The settings on record: for AUC: AUC of [Ca2+]i fluorescence. How it is done: Chinese hamster ovary (CHO)-K1 cells expressing hMOR and Gα15 (CHO-K1/MOR/Gα15) were cultured in F12 medium (GIBCO) supplemented with 10 μg/mL Hygromycin B (Invivogen), 20 μg/mL Zeocin (Invivogen) and P/S/F (100 units/mL penicillin, 100 μg/mL streptomycin, 10% fetal bovine serum). The cultures were incubated at 37° C. in a humidified 5% CO2 incubator.
One day prior to running the assay, CORNING® black 96-well assay plates having a clear flat bottom were coated with a 0.1 mg/mL Poly-L-Lysine solution. CHO-K1/MOR/Gα15 cells were suspended in F12 medium and plated at a density of about 8×10^4 cells/well in 200 μL medium. Cells were incubated under a humidified atmosphere of 10% CO2 at 37° C. overnight to reach an 80-90% confluent cell monolayer before the assay. On the day of the assay, 150 μL medium was removed from each well of the plates. To each well were added FLIPR® calcium assay reagents (Molecular Devices Corporation, Sunnyvale, Calif., USA; 50 μL) dissolved in 1× assay buffer (HBSS: KCl 5 mM, KH2PO4 0.3 mM, NaCl 138 mM, NaHCO3 4 mM, Na2HPO4 0.3 mM, d-glucose 5.6 mM, with additional 20 mM HEPES and […], pH 7.4) and 2.5 mM probenecid. After incubation at 37° C. for 1 hour, a test compound, alone or together with naloxone (a MOR antagonist), was also added to each well. Using a FlexStationlll instrument (Molecular Devices Corp.), increments of the [Ca^2+]i fluorescence after robotic injection of the cell suspension were monitored at 1.52 s intervals using the excitation wavelength of 485 nm and the emission wavelength of 525 nm. The [Ca^2+]i fluorescence was measured up to 90 s after the injection. The fluorescence intensity from 6 to 12 wells of cells were averaged and the relative amount of [Ca^2+]i release was determined by integrating the AUC of the [Ca^2+]i fluorescence averages.
A CHO-K1 cell line expressing MOR and Gα15 (GenScript) was used to set up a sensitive high-throughput screen (HTS) system. […] The HTS was performed in the absence or presence of naloxone (an opioid antagonist; 20 nM), to identify AAMs.

Where [3] appears, read: combined with naloxone, CHO-K1/MOR/Gα15 cells.
The mark [4] stands for this setting: EC50, combined with naloxone, CHO-K1/MOR/Gα15 cells.
Where [5] appears, read: combined with naloxone, CHO-K1/MOR/Gα15 cells, read-out: EC50.

T1 sequence (P35372 whole entry): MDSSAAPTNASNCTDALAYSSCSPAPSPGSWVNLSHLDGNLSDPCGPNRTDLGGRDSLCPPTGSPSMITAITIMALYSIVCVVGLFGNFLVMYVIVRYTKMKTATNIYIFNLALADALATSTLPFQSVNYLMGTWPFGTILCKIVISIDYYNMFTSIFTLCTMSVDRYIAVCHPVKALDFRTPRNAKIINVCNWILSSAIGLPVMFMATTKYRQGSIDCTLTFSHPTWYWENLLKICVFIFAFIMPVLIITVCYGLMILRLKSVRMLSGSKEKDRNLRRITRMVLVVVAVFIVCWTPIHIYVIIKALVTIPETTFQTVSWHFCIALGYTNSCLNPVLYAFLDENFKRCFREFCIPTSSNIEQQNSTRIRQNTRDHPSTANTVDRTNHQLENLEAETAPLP

As usually defined, the ED50 is the dose that gives a 50% effect, or the effect in half of the subjects. Turning to `C=CCN1CC[C@]23c4c5ccc(O)c4O[C@H]2C(=O)CC[C@@]3(O)[C@H]1C5` [naloxone, reference compound], in assay [1] (Mus musculus, mice injected with Compound 1 at 100 mg/kg, read-out: ED50 in inhibiting the tail-flick response), the ED50 was 17.5 ± 4 mg/kg.

The EC50 is the midpoint of the concentration-response curve. With `CCc1ccccc1Nc1nc(-c2sc(C)nc2C)cs1` [Compound 1, N-(2-Ethylphenyl)-2′,4′-dimethyl-4,5′-bi-1,3-thiazol-2-amine], the AUC entry in assay [2] (setting [3]) is “+ (+: >5000)”. For the same compound, the EC50 was less than 10 µM in assay [2] (EC50, combined with naloxone); 4 µM in assay [2] (EC50, combined with naloxone (20 nM)); 3 to 10 µM in assay [2] (setting [4]). Also, the “effect on Emax and potency of naloxone” value in assay [2] (concentration-response curves of naloxone at several concentrations of Compound 1) was “both Emax and potency of naloxone were altered”. Moreover, the calcium release entry in assay [2] (in the presence of naloxone) was “significant calcium release”. For the same compound, in assay [2] (morphine with Compound 1 at 30, 10, or 3.3 μM), the “PAM or NAM effect: Emax and potency of morphine” value is reported as “neither Emax nor potency of morphine was significantly altered”. The anti-nociceptive effect result in assay [1] (Compound 1 alone at 25, 50, or 100 mg/kg (i.v.), B6 mice) is “did not produce any anti-nociceptive effect”. The “AUC of inhibition of the tail-flick response” value is 114.8±26 min×s in assay [1] (Compound 1 at 25 mg/kg (i.v.) with naloxone at 10 mg/kg), 159.8±60 min×s in assay [1] (Compound 1 at 50 mg/kg (i.v.) with naloxone at 10 mg/kg) and 384±87 min×s in assay [1] (Compound 1 at 100 mg/kg (i.v.) with naloxone at 10 mg/kg).

In the case of `COc1ccc(Nc2nc(-c3sc(C)nc3C)cs2)c(C)c1` [Compound 35, N-(4-Methoxy-2-methylphenyl)-2′,4′-dimethyl-4,5′-bi-1,3-thiazol-2-amine], the AUC result in assay [2] (setting [3]) was “+ (+: >5000)”. Besides, the EC50 in assay [2] (setting [5]) is greater than 10 µM.

Turning to `Cc1nc(C)c(-c2csc(Nc3ccc(N(C)C)cc3C)n2)s1` [Compound 75, N^1-(2′,4′-Dimethyl-4,5′-bi-1,3-thiazol-2-yl)-N^4,N^4,2-trimethyl-1,4-benzenediamine], the AUC entry in assay [2] (setting [3]) is “− (−: <5000)”. The EC50 in assay [2] (setting [5]) was greater than 10 µM.

Take `CCc1ccccc1Nc1nc(-c2oc(C)nc2C)cs1` [Compound 102, 4-(2,4-Dimethyl-1,3-oxazol-5-yl)-N-(2-ethylphenyl)-1,3-thiazol-2-amine]: the AUC entry in assay [2] (setting [3]) was “+ (+: >5000)”. The EC50 is less than 10 µM in assay [2] (EC50, combined with naloxone) and 3 to 10 µM in assay [2] (setting [4]).

Take `CCc1ccccc1Nc1nccs1` [Compound 131, N-(2-Ethylphenyl)-1,3-thiazol-2-amine]: the AUC entry in assay [2] (setting [3]) is “− (−: <5000)”. Moreover, the EC50 in assay [2] (setting [5]) was greater than 10 µM.

`CCc1cccc(CC)c1Nc1nc(-c2sc(C)nc2C)cs1` [Compound 45, N-(2,6-Diethylphenyl)-2′,4′-dimethyl-4,5′-bi-1,3-thiazol-2-amine]: in assay [2] (setting [3]), the AUC entry is “− (−: <5000)”. Besides, the EC50 in assay [2] (EC50, combined with naloxone) is less than 10 µM; in assay [2] (setting [4]) it was 1 to 3 µM.

As for `Cc1nc(C)c(-c2csc(Nc3c(C)cc(F)cc3C)n2)s1` [Compound 55, N-(4-Fluoro-2,6-dimethylphenyl)-2′,4′-dimethyl-4,5′-bi-1,3-thiazol-2-amine], the AUC result in assay [2] (setting [3]) is “+ (+: >5000)”. The EC50 in assay [2] (setting [5]) was greater than 10 µM.

Turning to `Cc1nc(C)c(-c2csc(N)n2)s1` [Compound 130, 2′,4′-Dimethyl-4,5′-bi-1,3-thiazol-2-amine], the AUC entry in assay [2] (setting [3]) is recorded as “− (−: <5000)”. The EC50 in assay [2] (setting [5]) was greater than 10 µM.
